Experiments:
Carboplatin = compound: C1CC(C1)(C(=O)[O-])C(=O)[O-].N.N.[Pt+2] [Carboplatin]; settings: max 10 µM
Outline: (§1)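 Cancer cell lines were seeded in 1536-well plates in 7.5 μl DMEM/F12 or RPMI with 10% FBS, held 24 hours at 37°C and 5% CO2, then dosed for 72 hours (final DMSO typically 0.2%). Viability was read by CellTiter-Glo 2.0 luminescence and scaled between blank-well and DMSO-well means. The single-agent IC50 comes from dose responses fitted to a two-parameter logistic curve with a non-linear mixed effects model.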

AZD5363 = compound: C1CN(CCC1(C(=O)N[C@@H](CCO)C2=CC=C(C=C2)Cl)N)C3=NC=NC4=C3C=CN4 [AZD5363]; settings: max 10 µM
Outline: as §1

AZD1775 = compound: C=CCn1c(=O)c2cnc(Nc3ccc(N4CCN(C)CC4)cc3)nc2n1-c1cccc(C(C)(C)O)n1 [AZD1775]; settings: max 3 µM
Outline: as §1

Trametinib = compound: CC(=O)Nc1cccc(-n2c(=O)n(C3CC3)c(=O)c3c(Nc4ccc(I)cc4F)n(C)c(=O)c(C)c32)c1 [Trametinib]; settings: max 1 µM
Outline: as §1

Paclitaxel = compound: CC(=O)O[C@H]1C(=O)[C@@]2(C)[C@H]([C@H](OC(=O)c3ccccc3)[C@]3(O)C[C@H](OC(=O)[C@H](O)[C@@H](NC(=O)c4ccccc4)c4ccccc4)C(C)=C1C3(C)C)[C@]1(OC(C)=O)CO[C@@H]1C[C@@H]2O [Paclitaxel]; settings: max 3 µM
Outline: as §1

Palbociclib = compound: CC(=O)c1c(C)c2cnc(Nc3ccc(N4CCNCC4)cn3)nc2n(C2CCCC2)c1=O [Palbociclib]; settings: max 10 µM
Outline: as §1

AZD1390 = compound: CC(C)n1c(=O)n(C)c2cnc3cc(F)c(-c4ccc(OCCCN5CCCCC5)nc4)cc3c21 [AZD1390]; settings: max 0.3 µM
Outline: as §1

Venetoclax = compound: CC1(C)CCC(CN2CCN(c3ccc(C(=O)NS(=O)(=O)c4ccc(NCC5CCOCC5)c([N+](=O)[O-])c4)c(Oc4cnc5[nH]ccc5c4)c3)CC2)=C(c2ccc(Cl)cc2)C1 [Venetoclax]; settings: max 1 µM
Outline: as §1

Dasatinib = compound: CC1=C(C(=CC=C1)Cl)NC(=O)C2=CN=C(S2)NC3=CC(=NC(=N3)C)N4CCN(CC4)CCO [Dasatinib]; settings: max 2 µM
Outline: as §1

SG3199 = compound: CC1=CN2[C@@H](C1)C=NC3=CC(=C(C=C3C2=O)OC)OCCCCCOC4=C(C=C5C(=C4)N=C[C@@H]6CC(=CN6C5=O)C)OC [SG3199]; settings: max 0.001 µM
Outline: as §1

AZD2811 = compound: CCN(CCO)CCCOc1ccc2c(Nc3cc(CC(=O)Nc4cccc(F)c4)[nH]n3)ncnc2c1 [AZD2811]; settings: max 1 µM
Outline: as §1

SN-38 = compound: CCc1c2c(nc3ccc(O)cc13)-c1cc3c(c(=O)n1C2)COC(=O)[C@]3(O)CC [SN-38]; settings: max 0.3 µM
Outline: as §1

AZD0156 = compound: CN(C)CCCOc1ccc(-c2ccc3ncc4c(c3c2)n(C2CCOCC2)c(=O)n4C)cn1 [AZD0156]; settings: max 3 µM
Outline: as §1

AZD4320 = compound: CN(CC[C@H](CSC1=CC=CC=C1)NC2=C(C=C(C=C2)S(=O)(=O)NC(=O)C3=CC=C(C=C3)N4CCC(CC4)[C@H](C5=CC=CC=C5C6=CC=C(C=C6)Cl)O)S(=O)(=O)C(F)(F)F)CCO [AZD4320]; settings: max 1 µM
Outline: as §1

Alisertib = compound: COc1cc(Nc2ncc3c(n2)-c2ccc(Cl)cc2C(c2c(F)cccc2OC)=NC3)ccc1C(=O)O [Alisertib]; settings: max 10 µM
Outline: as §1

Etoposide = compound: COc1cc([C@@H]2c3cc4c(cc3[C@@H](O[C@@H]3O[C@@H]5CO[C@@H](C)O[C@H]5[C@H](O)[C@H]3O)[C@H]3COC(=O)[C@H]23)OCO4)cc(OC)c1O [Etoposide]; settings: max 10 µM
Outline: as §1

Gefitinib = compound: COc1cc2ncnc(Nc3ccc(F)c(Cl)c3)c2cc1OCCCN1CCOCC1 [Gefitinib]; settings: max 10 µM
Outline: as §1

Prexasertib = compound: COc1cccc(OCCCN)c1-c1cc(Nc2cnc(C#N)cn2)n[nH]1 [Prexasertib]; settings: max 1 µM
Outline: as §1

Doxorubicin = compound: COc1cccc2c1C(=O)c1c(O)c3c(c(O)c1C2=O)C[C@@](O)(C(=O)CO)C[C@@H]3O[C@H]1C[C@H](N)[C@H](O)[C@H](C)O1 [Doxorubicin]; settings: max 1 µM
Outline: as §1

AZD5153 = compound: COc1nnc2ccc(N3CCC(c4ccc(OCCN5CCN(C)C(=O)[C@H]5C)cc4)CC3)nn12 [AZD5153]; settings: max 1 µM
Outline: as §1

Lapatinib = compound: CS(=O)(=O)CCNCc1ccc(-c2ccc3ncnc(Nc4ccc(OCc5cccc(F)c5)c(Cl)c4)c3c2)o1 [Lapatinib]; settings: max 10 µM
Outline: as §1

AZD8186 = compound: C[C@@H](Nc1cc(F)cc(F)c1)c1cc(C(=O)N(C)C)cc2c(=O)cc(N3CCOCC3)oc12 [AZD8186]; settings: max 10 µM
Outline: as §1

Crizotinib = compound: C[C@@H](Oc1cc(-c2cnn(C3CCNCC3)c2)cnc1N)c1c(Cl)ccc(F)c1Cl [Crizotinib]; settings: max 10 µM
Outline: as §1

Savolitinib = compound: C[C@@H](c1ccc2nccn2c1)n1nnc2ncc(-c3cnn(C)c3)nc21 [Savolitinib]; settings: max 1 µM
Outline: as §1

AZD6738 = compound: C[C@@H]1COCCN1C2=NC(=NC(=C2)C3(CC3)[S@](=N)(=O)C)C4=C5C=CNC5=NC=C4 [AZD6738]; settings: max 10 µM
Outline: as §1

AZD5991 = compound: Cc1c2c(nn1C)CSCc1cc(n(C)n1)CSc1cc(c3ccccc3c1)OCCCc1c(C(=O)O)n(C)c3c-2c(Cl)ccc13 [AZD5991]; settings: max 1 µM
Outline: as §1

AZD7648 = compound: Cc1cc2ncnn2cc1Nc1ncc2c(n1)n(C1CCOCC1)c(=O)n2C [AZD7648]; settings: max 10 µM
Outline: as §1

Taselisib = compound: Cc1nc(-c2cn3c(n2)-c2ccc(-c4cnn(C(C)(C)C(N)=O)c4)cc2OCC3)n(C(C)C)n1 [Taselisib]; settings: max 10 µM
Outline: as §1

Selumetinib = compound: Cn1cnc2c(F)c(Nc3ccc(Br)cc3Cl)c(C(=O)NOCCO)cc21 [Selumetinib]; settings: max 10 µM
Outline: as §1

SRA737 = compound: N#Cc1cnc(Nc2cc(NC[C@H]3CNCCO3)c(C(F)(F)F)cn2)cn1 [SRA737]; settings: max 10 µM
Outline: as §1

MK-2206 = compound: NC1(c2ccc(-c3nc4ccn5c(=O)[nH]nc5c4cc3-c3ccccc3)cc2)CCC1 [MK-2206]; settings: max 10 µM
Outline: as §1

Gemcitabine = compound: Nc1ccn([C@@H]2O[C@H](CO)[C@@H](O)C2(F)F)c(=O)n1 [Gemcitabine]; settings: max 0.3 µM
Outline: as §1

[1] = compound: O=C(Nc1ccc2[nH]nc(-c3ccncc3)c2c1)[C@@H]1CCN(CC(=O)N2CCN(c3ccc(-c4ncccn4)cc3)CC2)C1; settings: max 5 µM
Outline: as §1

Olaparib = compound: O=C(c1cc(Cc2n[nH]c(=O)c3ccccc23)ccc1F)N1CCN(C(=O)C2CC2)CC1 [Olaparib]; settings: max 10 µM
Outline: as §1

5-Fluorouracil = compound: O=c1[nH]cc(F)c(=O)[nH]1 [5-Fluorouracil]; settings: max 20 µM
Outline: as §1

## SNU-387 (Hepatocellular Carcinoma)
Carboplatin
  IC50, cell viability 72 h: > 10000 nM
AZD5363
  IC50, cell viability 72 h: > 10000 nM
AZD1775
  IC50, cell viability 72 h: 1030 nM
Trametinib
  IC50, cell viability 72 h: 583 nM
Paclitaxel
  IC50, cell viability 72 h: 27.4 nM
Palbociclib
  IC50, cell viability 72 h: > 10000 nM
AZD1390
  IC50, cell viability 72 h: > 300 nM
Venetoclax
  IC50, cell viability 72 h: > 1000 nM
Dasatinib
  IC50, cell viability 72 h: > 2000 nM
SG3199
  IC50, cell viability 72 h: > 1 nM
AZD2811
  IC50, cell viability 72 h: > 1000 nM
SN-38
  IC50, cell viability 72 h: > 300 nM
AZD0156
  IC50, cell viability 72 h: > 3000 nM
AZD4320
  IC50, cell viability 72 h: > 1000 nM
Alisertib
  IC50, cell viability 72 h: > 10000 nM
Etoposide
  IC50, cell viability 72 h: > 10000 nM
Gefitinib
  IC50, cell viability 72 h: > 10000 nM
Prexasertib
  IC50, cell viability 72 h: 555 nM
Doxorubicin
  IC50, cell viability 72 h: > 1000 nM
AZD5153
  IC50, cell viability 72 h: > 1000 nM
Lapatinib
  IC50, cell viability 72 h: > 10000 nM
AZD8186
  IC50, cell viability 72 h: 8360 nM
Crizotinib
  IC50, cell viability 72 h: > 10000 nM
Savolitinib
  IC50, cell viability 72 h: > 1000 nM
AZD6738
  IC50, cell viability 72 h: > 10000 nM
AZD5991
  IC50, cell viability 72 h: > 1000 nM
AZD7648
  IC50, cell viability 72 h: > 10000 nM
Taselisib
  IC50, cell viability 72 h: > 10000 nM
Selumetinib
  IC50, cell viability 72 h: > 10000 nM
SRA737
  IC50, cell viability 72 h: > 10000 nM
MK-2206
  IC50, cell viability 72 h: > 10000 nM
Gemcitabine
  IC50, cell viability 72 h: > 300 nM
[1]
  IC50, cell viability 72 h: > 5000 nM
Olaparib
  IC50, cell viability 72 h: > 10000 nM
5-Fluorouracil
  IC50, cell viability 72 h: > 20000 nM
